Test results taken from ChEMBL document CHEMBL1154382, “Preliminary SAR analysis of novel antiproliferative N(6),5'-bis-ureidoadenosine derivatives” (2009).

Experiments:
Assay type in all cases: functional
Details in all cases: values are per cent of control
[1] = test system: PC-3; assay: Antiproliferative activity against human PC3 cells at 10 uM assessed as cell growth inhibition relative to control
[2] = test system: A498; assay: Antiproliferative activity against human A498 cells at 10 uM assessed as cell growth inhibition relative to control
[3] = test system: NCI-H460; assay: Antiproliferative activity against human NCI-H460 cells at 10 uM assessed as cell growth inhibition relative to control
[4] = test system: KM12; assay: Antiproliferative activity against human KM12 cells at 10 uM assessed as cell growth inhibition relative to control
[5] = test system: HCC 2998; assay: Antiproliferative activity against human HCC2998 cells at 10 uM assessed as cell growth inhibition relative to control
[6] = Antiproliferative activity against human […] cells at 10 uM assessed as cell growth inhibition relative to control
[7] = test system: NCI-H322M; assay: Antiproliferative activity against human NCI-H322M cells at 10 uM assessed as cell growth inhibition relative to control
[8] = test system: U-251; assay: Antiproliferative activity against human U251 cells at 10 uM assessed as cell growth inhibition relative to control
[9] = test system: SK-MEL-5; assay: Antiproliferative activity against human SK-MEL-5 cells at 10 uM assessed as cell growth inhibition relative to control
[10] = test system: SF-268; assay: Antiproliferative activity against human SF268 cells at 10 uM assessed as cell growth inhibition relative to control
[11] = test system: SW-620; assay: Antiproliferative activity against human SW620 cells at 10 uM assessed as cell growth inhibition relative to control
[12] = test system: DU-145; assay: Antiproliferative activity against human DU145 cells at 10 uM assessed as cell growth inhibition relative to control
[13] = test system: HCT-116; assay: Antiproliferative activity against human HCT116 cells at 10 uM assessed as cell growth inhibition relative to control
[14] = test system: SN12C; assay: Antiproliferative activity against human SN12C cells at 10 uM assessed as cell growth inhibition relative to control
[15] = test system: CCRF-CEM; assay: Antiproliferative activity against human CCRF-CEM cells at 10 uM assessed as cell growth inhibition relative to control
[16] = test system: MOLT-4; assay: Antiproliferative activity against human MOLT4 cells at 10 uM assessed as cell growth inhibition relative to control
[17] = test system: IGROV-1; assay: Antiproliferative activity against human IGROV1 cells at 10 uM assessed as cell growth inhibition relative to control
[18] = test system: K562; assay: Antiproliferative activity against human K562 cells at 10 uM assessed as cell growth inhibition relative to control
[19] = test system: NCI-H522; assay: Antiproliferative activity against human NCI-H522 cells at 10 uM assessed as cell growth inhibition relative to control
[20] = test system: HOP-92; assay: Antiproliferative activity against human HOP92 cells at 10 uM assessed as cell growth inhibition relative to control
[21] = test system: EKVX; assay: Antiproliferative activity against human EKVX cells at 10 uM assessed as cell growth inhibition relative to control
[22] = test system: SF-539; assay: Antiproliferative activity against human SF539 cells at 10 uM assessed as cell growth inhibition relative to control
[23] = test system: OVCAR-4; assay: Antiproliferative activity against human OVCAR4 cells at 10 uM assessed as cell growth inhibition relative to control
[24] = test system: TK-10; assay: Antiproliferative activity against human TK10 cells at 10 uM assessed as cell growth inhibition relative to control
[25] = test system: A549; assay: Antiproliferative activity against human A549 cells at 10 uM assessed as cell growth inhibition relative to control
[26] = test system: SK-MEL-28; assay: Antiproliferative activity against human SK-MEL-28 cells at 10 uM assessed as cell growth inhibition relative to control
[27] = test system: UO-31; assay: Antiproliferative activity against human UO31 cells at 10 uM assessed as cell growth inhibition relative to control
[28] = test system: RXF 393; assay: Antiproliferative activity against human RXF393 cells at 10 uM assessed as cell growth inhibition relative to control
[29] = test system: MDA-MB-231; assay: Antiproliferative activity against human MDA-MB-231 cells at 10 uM assessed as cell growth inhibition relative to control
[30] = test system: OVCAR-5; assay: Antiproliferative activity against human OVCAR5 cells at 10 uM assessed as cell growth inhibition relative to control
[31] = test system: SK-OV-3; assay: Antiproliferative activity against human SKOV3 cells at 10 uM assessed as cell growth inhibition relative to control
[32] = test system: SNB-75; assay: Antiproliferative activity against human SNB75 cells at 10 uM assessed as cell growth inhibition relative to control
[33] = test system: SF-295; assay: Antiproliferative activity against human SF295 cells at 10 uM assessed as cell growth inhibition relative to control
[34] = test system: MCF7; assay: Antiproliferative activity against human MCF7 cells at 10 uM assessed as cell growth inhibition relative to control
[35] = Antiproliferative activity against human Hs 578T cells at 10 uM assessed as cell growth inhibition relative to control
[36] = test system: COLO 205; assay: Antiproliferative activity against human COLO205 cells at 10 uM assessed as cell growth inhibition relative to control
[37] = test system: SK-MEL-2; assay: Antiproliferative activity against human SK-MEL-2 cells at 10 uM assessed as cell growth inhibition relative to control
[38] = test system: OVCAR-3; assay: Antiproliferative activity against human OVCAR-3 cells at 10 uM assessed as cell growth inhibition relative to control
[39] = test system: UACC-257; assay: Antiproliferative activity against human UACC257 cells at 10 uM assessed as cell growth inhibition relative to control
[40] = test system: OVCAR-8; assay: Antiproliferative activity against human OVCAR8 cells at 10 uM assessed as cell growth inhibition relative to control
[41] = test system: UACC-62; assay: Antiproliferative activity against human UACC62 cells at 10 uM assessed as cell growth inhibition relative to control
[42] = test system: HCT-15; assay: Antiproliferative activity against human HCT15 cells at 10 uM assessed as cell growth inhibition relative to control
[43] = test system: HOP-62; assay: Antiproliferative activity against human HOP62 cells at 10 uM assessed as cell growth inhibition relative to control
[44] = test system: SNB-19; assay: Antiproliferative activity against human SNB19 cells at 10 uM assessed as cell growth inhibition relative to control
[45] = test system: ACHN; assay: Antiproliferative activity against human ACHN cells at 10 uM assessed as cell growth inhibition relative to control
[46] = test system: Malme-3M; assay: Antiproliferative activity against human MALME-3M cells at 10 uM assessed as cell growth inhibition relative to control
[47] = test system: M14; assay: Antiproliferative activity against human M14 cells at 10 uM assessed as cell growth inhibition relative to control
[48] = test system: MDA-MB-468; assay: Antiproliferative activity against human MDA-MB-468 cells at 10 uM assessed as cell growth inhibition relative to control
[49] = test system: CAKI-1; assay: Antiproliferative activity against human Caki1 cells at 10 uM assessed as cell growth inhibition relative to control
[50] = test system: BT-549; assay: Antiproliferative activity against human BT549 cells at 10 uM assessed as cell growth inhibition relative to control
[51] = test system: NCI-H23; assay: Antiproliferative activity against human NCI-H23 cells at 10 uM assessed as cell growth inhibition relative to control
[52] = test system: LOX IMVI; assay: Antiproliferative activity against human LOXIMVI cells at 10 uM assessed as cell growth inhibition relative to control
[53] = test system: T47D; assay: Antiproliferative activity against human T47D cells at 10 uM assessed as cell growth inhibition relative to control
[54] = test system: HL-60(TB); assay: Antiproliferative activity against human HL-60(TB) cells at 10 uM assessed as cell growth inhibition relative to control
[55] = test system: NCI-H226; assay: Antiproliferative activity against human NCI-H226 cells at 10 uM assessed as cell growth inhibition relative to control
[56] = test system: 786-0; assay: Antiproliferative activity against human 786-0 cells at 10 uM assessed as cell growth inhibition relative to control
[57] = test system: HT-29; assay: Antiproliferative activity against human HT-29 cells at 10 uM assessed as cell growth inhibition relative to control

CCOC(=O)C=C1[C@@H](O[Si](C)(C)C(C)(C)C)[C@H](n2cnc3c(N)ncnc32)O[C@@H]1CNC(=O)NC
growth, % of control at 10 µM [1]: 93%
growth, % of control at 10 µM [2]: 78%
growth, % of control at 10 µM [3]: 110%
growth, % of control at 10 µM [4]: 60%
growth, % of control at 10 µM [5]: 71%
growth, % of control at 10 µM [6]: 81%
growth, % of control at 10 µM [7]: 81%
growth, % of control at 10 µM [8]: 53%
growth, % of control at 10 µM [9]: 75%
growth, % of control at 10 µM [10]: 98%
growth, % of control at 10 µM [11]: 88%
growth, % of control at 10 µM [12]: 71%
growth, % of control at 10 µM [13]: 52%
growth, % of control at 10 µM [14]: 90%
growth, % of control at 10 µM [15]: 119%
growth, % of control at 10 µM [16]: 75%
growth, % of control at 10 µM [17]: 46%
growth, % of control at 10 µM [18]: 84%
growth, % of control at 10 µM [19]: 74%
growth, % of control at 10 µM [20]: 90%
growth, % of control at 10 µM [21]: 86%
growth, % of control at 10 µM [22]: 92%
growth, % of control at 10 µM [23]: 71%
growth, % of control at 10 µM [24]: 85%
growth, % of control at 10 µM [25]: 100%
growth, % of control at 10 µM [26]: 111%
growth, % of control at 10 µM [27]: 76%
growth, % of control at 10 µM [28]: 105%
growth, % of control at 10 µM [29]: 81%
growth, % of control at 10 µM [30]: 88%
growth, % of control at 10 µM [31]: 102%
growth, % of control at 10 µM [32]: 98%
growth, % of control at 10 µM [33]: 88%
growth, % of control at 10 µM [34]: 94%
growth, % of control at 10 µM [35]: 107%
growth, % of control at 10 µM [36]: 76%
growth, % of control at 10 µM [37]: 94%
growth, % of control at 10 µM [38]: 65%
growth, % of control at 10 µM [39]: 95%
growth, % of control at 10 µM [40]: 104%
growth, % of control at 10 µM [41]: 79%
growth, % of control at 10 µM [42]: 90%
growth, % of control at 10 µM [43]: 99%
growth, % of control at 10 µM [44]: 88%
growth, % of control at 10 µM [45]: 70%
growth, % of control at 10 µM [46]: 105%
growth, % of control at 10 µM [47]: 87%
growth, % of control at 10 µM [48]: 71%
growth, % of control at 10 µM [49]: 85%
growth, % of control at 10 µM [50]: 80%
growth, % of control at 10 µM [51]: 99%
growth, % of control at 10 µM [52]: 74%
growth, % of control at 10 µM [53]: 79%
growth, % of control at 10 µM [54]: 76%
growth, % of control at 10 µM [55]: 90%
growth, % of control at 10 µM [56]: 77%
growth, % of control at 10 µM [57]: 65%
